Tests used:
[1] = test system: SW480; experiment: Antiproliferative activity against human SW480 cells assessed as cell growth inhibition after 72 hrs by MTT assay; assay type: functional
[2] = test system: A549; experiment: Antiproliferative activity against human A549 cells assessed as cell growth inhibition after 72 hrs by MTT assay; assay type: functional
[3] = biological target: Acetylcholinesterase (Electrophorus electricus, UniProt O42275); experiment: Inhibition of electric eel AChE using acetylthiocholine […] as substrate for 20 mins by Ellman's method
Chain of Acetylcholinesterase (O42275 whole entry): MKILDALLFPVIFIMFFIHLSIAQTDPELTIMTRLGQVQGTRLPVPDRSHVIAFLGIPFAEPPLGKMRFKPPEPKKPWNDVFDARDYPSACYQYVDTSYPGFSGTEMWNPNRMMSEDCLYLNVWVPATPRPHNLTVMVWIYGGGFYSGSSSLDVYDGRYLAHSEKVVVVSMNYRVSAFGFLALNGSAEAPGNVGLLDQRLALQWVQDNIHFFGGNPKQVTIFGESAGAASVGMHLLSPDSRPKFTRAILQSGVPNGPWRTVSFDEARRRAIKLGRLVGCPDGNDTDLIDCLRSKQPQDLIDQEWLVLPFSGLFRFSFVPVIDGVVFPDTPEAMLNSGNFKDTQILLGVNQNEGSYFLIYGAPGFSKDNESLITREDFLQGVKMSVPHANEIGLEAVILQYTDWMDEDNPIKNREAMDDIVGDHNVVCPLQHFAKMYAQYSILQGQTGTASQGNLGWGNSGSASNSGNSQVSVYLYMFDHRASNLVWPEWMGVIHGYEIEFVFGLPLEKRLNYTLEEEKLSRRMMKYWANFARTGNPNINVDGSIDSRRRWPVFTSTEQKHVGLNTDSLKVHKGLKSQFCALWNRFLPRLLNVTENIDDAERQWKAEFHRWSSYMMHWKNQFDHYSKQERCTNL

[4] = biological target: CDK2/Cyclin A2 (Homo sapiens) (UniProt P24941+P20248); experiment: Inhibition of human full length CDK2/CyclinA2 at 500 nM by ADP-Glo kinase assay relative to control; assay type: protein-complex assay
[5] = test system: HCT-116; experiment: Antiproliferative activity against human HCT-116 cells assessed as cell growth inhibition after 72 hrs by MTT assay; assay type: functional
[6] = biological target: CDK9/cyclin T1 (Homo sapiens, UniProt P50750)
Chain of CDK9/cyclin T1 (O60563 whole entry): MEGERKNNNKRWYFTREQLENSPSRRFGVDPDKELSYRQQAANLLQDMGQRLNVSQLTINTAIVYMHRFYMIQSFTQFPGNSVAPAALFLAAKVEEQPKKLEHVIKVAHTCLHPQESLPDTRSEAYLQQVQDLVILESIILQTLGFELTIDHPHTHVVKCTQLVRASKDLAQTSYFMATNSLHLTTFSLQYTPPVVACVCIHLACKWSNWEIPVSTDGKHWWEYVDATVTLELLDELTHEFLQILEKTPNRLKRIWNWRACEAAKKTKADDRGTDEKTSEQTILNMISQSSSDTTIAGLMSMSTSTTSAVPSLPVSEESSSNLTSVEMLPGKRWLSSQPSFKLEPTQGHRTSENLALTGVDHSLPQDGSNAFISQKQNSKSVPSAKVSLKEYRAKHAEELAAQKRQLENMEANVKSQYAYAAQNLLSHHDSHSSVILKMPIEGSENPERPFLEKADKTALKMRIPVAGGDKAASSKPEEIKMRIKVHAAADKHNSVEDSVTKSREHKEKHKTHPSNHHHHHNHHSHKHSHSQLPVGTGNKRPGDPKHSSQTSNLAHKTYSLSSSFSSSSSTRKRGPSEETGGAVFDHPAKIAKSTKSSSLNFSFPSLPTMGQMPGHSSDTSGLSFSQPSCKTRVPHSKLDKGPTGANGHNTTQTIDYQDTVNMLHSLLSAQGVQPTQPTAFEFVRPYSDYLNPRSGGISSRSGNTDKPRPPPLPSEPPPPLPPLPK
Chain of CDK9/cyclin T1 (P50750 whole entry): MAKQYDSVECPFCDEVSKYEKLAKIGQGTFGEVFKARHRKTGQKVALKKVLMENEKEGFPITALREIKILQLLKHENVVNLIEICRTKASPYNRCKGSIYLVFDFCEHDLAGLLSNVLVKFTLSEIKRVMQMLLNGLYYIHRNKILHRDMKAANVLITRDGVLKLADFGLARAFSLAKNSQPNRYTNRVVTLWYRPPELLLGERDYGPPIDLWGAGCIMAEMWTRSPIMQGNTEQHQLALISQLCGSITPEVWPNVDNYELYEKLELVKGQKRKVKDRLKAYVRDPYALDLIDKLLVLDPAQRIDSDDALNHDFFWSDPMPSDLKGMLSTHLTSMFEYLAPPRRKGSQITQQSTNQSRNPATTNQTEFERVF
Description: Inhibition of CDK9/CyclinT1 (unknown origin) by ADP-Glo kinase assay

[7] = biological target: Cholinesterase (Equus caballus, UniProt P81908); experiment: Inhibition of equine serum BuChE using […] as substrate for 20 mins by Ellman's method
Chain of Cholinesterase (P81908 whole entry): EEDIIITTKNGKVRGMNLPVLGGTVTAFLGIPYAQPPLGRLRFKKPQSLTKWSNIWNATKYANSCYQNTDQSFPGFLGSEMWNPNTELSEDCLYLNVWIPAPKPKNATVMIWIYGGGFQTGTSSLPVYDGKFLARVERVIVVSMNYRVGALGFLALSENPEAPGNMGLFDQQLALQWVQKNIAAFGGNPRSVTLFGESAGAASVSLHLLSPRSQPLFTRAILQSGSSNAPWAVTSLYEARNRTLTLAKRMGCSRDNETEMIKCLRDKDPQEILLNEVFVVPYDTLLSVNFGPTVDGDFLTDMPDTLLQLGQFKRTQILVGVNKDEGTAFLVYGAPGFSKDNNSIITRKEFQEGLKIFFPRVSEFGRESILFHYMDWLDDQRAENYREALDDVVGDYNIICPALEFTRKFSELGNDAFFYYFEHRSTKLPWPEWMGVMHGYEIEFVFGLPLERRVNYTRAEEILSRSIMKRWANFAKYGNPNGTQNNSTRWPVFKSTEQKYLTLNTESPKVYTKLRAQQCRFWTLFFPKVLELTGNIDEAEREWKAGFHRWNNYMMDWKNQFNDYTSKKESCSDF

[8] = test system: MCF7; experiment: Antiproliferative activity against human MCF7 cells assessed as cell growth inhibition after 72 hrs by MTT assay; assay type: functional
[9] = biological target: CDK9/cyclin T1 (Homo sapiens) (UniProt O60563+P50750); experiment: Inhibition of CDK9/CyclinT1 (unknown origin) at 500 nM by ADP-Glo kinase assay relative to control; assay type: protein-complex assay
[10] = test system: HCT-116; experiment: Cell cycle arrest in human HCT-116 cells assessed as accumulation of cells at […] phase at 10 nM measured after 48 hrs by flow cytometry (reference value: 6.39%); assay type: functional
[11] = test system: HCT-116; experiment: Induction of apoptosis in human HCT-116 cells assessed as necrotic cells at 10 nM measured after 48 hrs by Annexin V-FITC/PI assay (reference value: 2.31%); assay type: functional
[12] = test system: HCT-116; experiment: Induction of apoptosis in human HCT-116 cells assessed as early apoptotic cells at 10 nM measured after 48 hrs by Annexin V-FITC/PI assay (reference value: 3.16%); assay type: functional
[13] = test system: HCT-116; experiment: Induction of apoptosis in human HCT-116 cells assessed as late apoptotic cells at 10 nM measured after 48 hrs by Annexin V-FITC/PI assay (reference value: 6.06%); assay type: functional
[14] = test system: HCT-116; experiment: Induction of apoptosis in human HCT-116 cells assessed as viable cells at 10 nM measured after 48 hrs by Annexin V-FITC/PI assay (reference value: 88.5%); assay type: functional; conditions: read-out: Activity
[15] = test system: HCT-116; experiment: Cell cycle arrest in human HCT-116 cells assessed as accumulation of cells at S phase at 10 nM measured after 48 hrs by flow cytometry (reference value: 31.43%); assay type: functional
[16] = test system: HCT-116; experiment: Cell cycle arrest in human HCT-116 cells assessed as accumulation of cells at G0-G1 phase at 10 nM measured after 48 hrs by flow cytometry (reference value: 62.18%); assay type: functional

Structure (SMILES)	GI50 [1] [µM]	GI50 [2] [µM]	IC50 [3] [µM]	inhibition [4] [%]	GI50 [5] [µM]	IC50 [6] [µM]	IC50 [7] [µM]	GI50 [8] [µM]	inhibition [9] [%]	Activity [10] [%]	Activity [11] [%]	Activity [12] [%]	Activity [13] [%]	viability at 0.01 µM [14] [%]	Activity [15] [%]	Activity [16] [%]
N[C@H]1CCN(c2c3c(nc4ccc(-c5ccnc(Nc6ccc(S(=O)(=O)N7CCNCC7)cc6)c5)cc24)CCCCC3)C1	7.8	7.53	19.5	84	5.83	> 0.5	2.82	11.6	–	–	–	–	–	–	–	–
CS(=O)(=O)c1ccc(Nc2cc(-c3ccc4nc5c(c(N6CC[C@H](N)C6)c4c3)CCCCC5)ccn2)cc1	3.52	2.78	24.2	90.1	3.01	–	3.05	3.16	80.2	–	–	–	–	–	–	–
CN1CCN(S(=O)(=O)c2ccc(Nc3cc(-c4ccc5nc6c(c(N7CC[C@H](N)C7)c5c4)CCCCC6)ccn3)cc2)CC1	3.23	3.21	24.2	85	2	–	4.38	2.73	57.2	–	–	–	–	–	–	–
N[C@H]1CCN(c2c3c(nc4ccc(-c5ccnc(Nc6ccc(S(=O)(=O)N7CCCC7)cc6)c5)cc24)CCCCC3)C1	3.52	2.69	> 50	74.8	6.02	> 0.5	4.96	3.24	–	–	–	–	–	–	–	–
N[C@H]1CCN(c2c3c(nc4ccc(-c5ccnc(Nc6ccc(S(=O)(=O)N7CCOCC7)cc6)c5)cc24)CCCCC3)C1	3.68	2.61	24.9	89.5	2.26	–	1.82	3.18	62.4	–	–	–	–	–	–	–
CCc1cnn2c(NCc3ccc[n+]([O-])c3)cc(N3CCCC[C@H]3CCO)nc12 [DINACICLIB]	0.008	0.006	–	–	0.009	–	–	0.012	–	10.05	1.14	33.2	~10.4	55.3	44.93	45.02

Source: ChEMBL document CHEMBL5352406 (Eur J Med Chem, 2022)
